We go through 2 molecules from publication PMC10625584, “Deciphering triterpenoid saponin biosynthesis by leveraging transcriptome response to methyl jasmonate elicitation in Saponaria vaccaria” (Nature Communications, 2023).

What is called Km is the substrate concentration at which the rate is half of its maximum.

The experiment deals with T1, SvCslG.
T1 construct: gene CslG; codon-optimized CDS in pESC-URA; S. cerevisiae INVSc1 microsomal protein
Kind of experiment: LC-MS assay with yeast microsomal protein, Michaelis-Menten fit. To be noted: 20 mM Tris-HCl pH 8.0, 30 mM Mg2+, 30 °C. The format is biochemical, Gypsophila vaccaria.

With `CC1(C)CC[C@]2(C(=O)O)[C@H](O)C[C@]3(C)C(=CC[C@@H]4[C@@]5(C)CC[C@H](O)[C@@](C)(C=O)[C@@H]5CC[C@]43C)[C@@H]2C1` [QA, quillaic acid], for the setting “UDP-GlcA co-substrate”, the Km was 3.13 µM.
For the molecule `O=C(O)[C@H]1O[C@H](OP(=O)(O)OP(=O)(O)OC[C@H]2O[C@@H](n3ccc(=O)[nH]c3=O)[C@H](O)[C@@H]2O)[C@H](O)[C@@H](O)[C@@H]1O` [UDP-GlcA], under “quillaic acid co-substrate”, the Km came out at 65 µM.
